For assay [1], the target named is T1, human eIF4E protein (Homo sapiens, UniProt P06730).
T1 construct: purchased Novus NBP-45314
In words: Biochemical competitive binding assay (TR-FRET competition, EDA-m7GDP-ATTO-647N probe). The note with it: read-out: hEIF4E TR-FRET IC50. The gist of the method: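 IC50 values come from 4-parameter fits of the normalized 665/620 nm TR-FRET ratio. Compound was first incubated 15 min with 4 nM recombinant His-eIF4E bound to 2.5 nM Eu-anti-His antibody, then 15 min with 5 nM m7GDP-ATTO-647N tracer, in pH 7.5 HEPES buffer with 100 mM KCl, Tween-20 and BSA.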
In general terms: TR-FRET usually uses a lanthanide donor and a delayed reading to cut background.

In assay [2] the test system is cap-dependent translation in Flp-In-293 reporter cells. In words: Cellular cap-dependent translation inhibition assay (dual luciferase assay, DLA; Fluc/Rluc ratio, 24 hours). It is filed as cell-based.
Assay [3] has as its system COLO 205 colorectal tumor cells. In words: Tumor cell viability inhibition assay (CellTiter-Glo 2.0, 72 hours). The note with it: COLO 205 cell viability. The format is cell-based. The procedure, abridged:
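IC50 derived by 4-parameter fitting after normalizing luminescence to DMSO and max-inhibition wells. Compounds tested as 11 concentrations in 4-fold steps on COLO 205 cells seeded at 1500 per well in RPMI-1640/10% FBS; ATP content measured with CellTiter-Glo 2.0 after 72 h.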

Where [4] appears, read: Homo sapiens, Flp-In-293, 24 h, dual luciferase assay, Flp-In-293 reporter cells, 24 hours, Fluc/Rluc ratio, read-out: DLA 205 IC50.
[5] abbreviates: dual luciferase assay, Flp-In-293 reporter cells, 24 hours, Fluc/Rluc ratio, read-out: DLA 205 IC50.
Setting [6] is: Homo sapiens, Flp-In-293, 24 h, read-out: DLA 205 IC50, dual luciferase assay, Flp-In-293 reporter cells, 24 hours, Fluc/Rluc ratio.

Where two headings read alike, the source gives them in different places.

Here are results for 32 molecules from patent US20240246918A1, “COMPOUNDS AND COMPOSITIONS AS EIF4E INHIBITORS AND THE USES THEREOF” (Ribometrix, Inc., priority 2022, published 2024).

T1 sequence (P06730 whole entry): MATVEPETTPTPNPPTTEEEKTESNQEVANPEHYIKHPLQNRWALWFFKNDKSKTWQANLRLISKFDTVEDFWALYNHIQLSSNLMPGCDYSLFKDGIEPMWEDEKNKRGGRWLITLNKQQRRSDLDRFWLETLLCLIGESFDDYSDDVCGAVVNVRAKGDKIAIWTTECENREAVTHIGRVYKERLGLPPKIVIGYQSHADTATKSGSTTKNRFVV

Take `Cc1cc(-c2cc(Cl)ccc2OCCn2c(C)nc3c(c2=O)C[C@@H](N2CCC[C@@H](F)C2)CC3)c2scc(C(=O)O)c2n1` (single isomer, unassigned) [Compound 324]: the IC50 in assay [1] was less than 100 nM; in assay [2] (setting [4]) it was less than 1000 nM; in assay [3] (Homo sapiens, COLO 205, 72 h) it was less than 5000 nM.

With `Cc1nc2c(c(=O)n1CC#Cc1ccc(Cl)cc1-c1ccnc3c(C(=O)O)csc13)C[C@@H](N1CC[C@@H](F)C1)CC2` (single isomer, unassigned) [Compound 327], the IC50 was less than 100 nM in assay [1]; less than 1000 nM in assay [2] (setting [4]); less than 5000 nM in assay [3] (Homo sapiens, COLO 205, 72 h).

For `Cc1cc(-c2cc(Cl)ccc2OCCn2c(C)nc3c(c2=O)C[C@@H](N2CC[C@@H](F)C2)CC3)c2scc(C(=O)O)c2n1` (single isomer, unassigned) [Compound 329], the IC50 is less than 100 nM in assay [1]; less than 1000 nM in assay [2] (setting [4]); less than 5000 nM in assay [3] (Homo sapiens, COLO 205, 72 h).

Take `Cc1cc(-c2cc(Cl)ccc2OCCn2c(C)nc3c(c2=O)CC(N(C)Cc2ccncc2)CC3)c2scc(C(=O)NS(C)(=O)=O)c2n1` (single isomer, unassigned) [Compound 330]: the IC50 in assay [1] was less than 100 nM; in assay [2] (setting [4]), less than 1000 nM; in assay [3] (Homo sapiens, COLO 205, 72 h) it was less than 5000 nM.

As to `Cc1nc2c(c(=O)n1CC#Cc1ccc(Cl)cc1-c1ccnc3c(C(=O)NS(C)(=O)=O)csc13)CC(N1CC(F)(F)C1)CC2` (single isomer, unassigned) [Compound 331], the IC50 was in the range of 100 to 500 nM in assay [1]; 1000 to 5000 nM in assay [2] (setting [5]); 5000 to 20000 nM in assay [3] (Homo sapiens, COLO 205, 72 h).

Consider `Cc1nc2c(c(=O)n1CC#Cc1ccc(Cl)cc1-c1ccnc3c(C(=O)NS(C)(=O)=O)csc13)CC(N1CC(F)(F)C1)CC2` (single isomer, unassigned) [Compound 332], for which the IC50 is 100 to 500 nM in assay [1], more than 5000 nM in assay [2] (setting [5]) and 5000 to 20000 nM in assay [3].

Take `Cc1nc2c(c(=O)n1CC#Cc1ccc(Cl)cc1-c1ccnc3c(C(=O)NS(C)(=O)=O)csc13)CC(N(C)C1CC(F)(F)C1)CC2` (single isomer, unassigned) [Compound 333]: the IC50 in assay [1] is less than 100 nM; in assay [2] (setting [4]), less than 1000 nM; in assay [3] (Homo sapiens, COLO 205, 72 h) it was less than 5000 nM.

Take `Cc1nc2c(c(=O)n1CC#Cc1ccc(Cl)cc1-c1ccnc3c(C(=O)NS(C)(=O)=O)csc13)CC(N(C)C1CC(F)(F)C1)CC2` (single isomer, unassigned) [Compound 334]: the IC50 in assay [1] was less than 100 nM; in assay [2] (setting [5]), less than 1000 nM; in assay [3], less than 5000 nM.

`Cc1cc(-c2cc(Cl)ccc2OCCn2c(C)nc3c(c2=O)CC(N(C)C2CC2)CC3)c2scc(C(=O)O)c2n1` (single isomer, unassigned) [Compound 335]: the IC50 is less than 100 nM in assay [1]; less than 1000 nM in assay [2] (setting [4]); less than 5000 nM in assay [3] (Homo sapiens, COLO 205, 72 h).

As to `Cc1cc(-c2cc(Cl)ccc2OCCn2c(C)nc3c(c2=O)CC(N(C)C2CC2)CC3)c2scc(C(=O)O)c2n1` (single isomer, unassigned) [Compound 336], the figures for the IC50 in assay [1], in assay [2] (setting [5]) and in assay [3] were less than 100 nM, less than 1000 nM and less than 5000 nM, respectively.

Take `Cc1cc(-c2cc(Cl)ccc2OCCn2c(C)nc3c(c2=O)CC(N(C)C2CCC(F)(F)C2)CC3)c2scc(C(=O)O)c2n1` (single isomer, unassigned) [Compound 337]: the IC50 was less than 100 nM in assay [1]; less than 1000 nM in assay [2] (setting [4]); less than 5000 nM in assay [3] (Homo sapiens, COLO 205, 72 h).

On to `Cc1cc(-c2cc(Cl)ccc2OCCn2c(C)nc3c(c2=O)CC(N(C)C2CCC(F)(F)C2)CC3)c2scc(C(=O)O)c2n1` (single isomer, unassigned) [Compound 338], for which the IC50 is less than 100 nM in assay [1], less than 1000 nM in assay [2] (setting [5]) and less than 5000 nM in assay [3].

As to `Cc1cc(-c2cc(Cl)ccc2OCCn2c(C)nc3c(c2=O)CC(N2CC(F)(F)C2)CC3)c2sccc2n1` (single isomer, unassigned) [Compound 340], the IC50 is 500 to 5000 nM in assay [1]; more than 5000 nM in assay [2] (setting [4]); more than 20000 nM in assay [3] (Homo sapiens, COLO 205, 72 h).

With `Cc1cc(-c2cc(Cl)ccc2OCCn2c(C)nc3c(c2=O)CC(N2CC(F)(F)C2)CC3)c2sccc2n1` (single isomer, unassigned) [Compound 341], the IC50 in assay [1] is 500 to 5000 nM; in assay [2] (setting [5]), more than 5000 nM; in assay [3] it was more than 20000 nM.

As to `Cc1cc(-c2cc(Cl)ccc2OCCn2c(C)nc3c(c2=O)CC(N2CC(F)C2)CC3)c2scc(C(=O)NS(C)(=O)=O)c2n1` (single isomer, unassigned) [Compound 342], the IC50 in assay [1] was less than 100 nM; in assay [2] (setting [4]), less than 1000 nM; in assay [3] (Homo sapiens, COLO 205, 72 h), less than 5000 nM.

With `Cc1cc(-c2cc(Cl)ccc2OCCn2c(C)nc3c(c2=O)CC(N2CC(F)C2)CC3)c2scc(C(=O)NS(C)(=O)=O)c2n1` (single isomer, unassigned) [Compound 343], the figures for the IC50 in assay [1], in assay [2] (setting [5]) and in assay [3] were less than 100 nM, less than 1000 nM and less than 5000 nM, respectively.

Regarding `Cc1cc(-c2cc(Cl)ccc2OCCn2c(C)nc3c(c2=O)CC(N(C)CC2(C)COC2)CC3)c2scc(C(=O)O)c2n1` (single isomer, unassigned) [Compound 344], the IC50 in assay [1] was less than 100 nM; in assay [2] (setting [4]), less than 1000 nM; in assay [3] (Homo sapiens, COLO 205, 72 h), less than 5000 nM.

Take `Cc1cc(-c2cc(Cl)ccc2OCCn2c(C)nc3c(c2=O)CC(N(C)CC2(C)COC2)CC3)c2scc(C(=O)O)c2n1` (single isomer, unassigned) [Compound 345]: the IC50 in assay [1] is less than 100 nM; in assay [2] (setting [5]), less than 1000 nM; in assay [3] it was 5000 to 20000 nM.

As to `Cc1cc(-c2cc(Cl)ccc2OCCn2c(C)nc3c(c2=O)C[C@H](N2CC[C@H](F)C2)CC3)c2scc(C(=O)NS(C)(=O)=O)c2n1` (single isomer, unassigned) [Compound 346], the IC50 in assay [1] is less than 100 nM; in assay [2] (setting [4]) it was less than 1000 nM; in assay [3] (Homo sapiens, COLO 205, 72 h) it was less than 5000 nM.

As to `Cc1cc(-c2cc(Cl)ccc2OCCn2c(C)nc3c(c2=O)C[C@@H](N2CC[C@H](F)C2)CC3)c2scc(C(=O)NS(C)(=O)=O)c2n1` (single isomer, unassigned) [Compound 347], the IC50 in assay [1] was less than 100 nM; in assay [2] (setting [4]), less than 1000 nM; in assay [3] (Homo sapiens, COLO 205, 72 h), less than 5000 nM.

Turning to `Cc1nc2c(c(=O)n1CC#Cc1ccc(Cl)cc1-c1ccnc3c(C(=O)NS(C)(=O)=O)csc13)C[C@H](N1CC[C@@H](F)C1)CC2` (single isomer, unassigned) [Compound 348], the IC50 in assay [1] is less than 100 nM; in assay [2] (setting [4]), less than 1000 nM; in assay [3] (Homo sapiens, COLO 205, 72 h), less than 5000 nM.

As for `Cc1nc2c(c(=O)n1CC#Cc1ccc(Cl)cc1-c1ccnc3c(C(=O)NS(C)(=O)=O)csc13)C[C@@H](N1CC[C@@H](F)C1)CC2` (single isomer, unassigned) [Compound 349], the IC50 was less than 100 nM in assay [1]; less than 1000 nM in assay [2] (setting [4]); less than 5000 nM in assay [3] (Homo sapiens, COLO 205, 72 h).

As for `Cc1cc(-c2cc(Cl)ccc2OCCn2c(C)nc3c(c2=O)CC(N(C)Cc2ccncc2)CC3)c2scc(C(=O)O)c2n1` (single isomer, unassigned) [Compound 354], the values for the IC50 in assay [1], in assay [2] (setting [5]) and in assay [3] were less than 100 nM, less than 1000 nM and less than 5000 nM, respectively.

For `Cc1cc(-c2cc(Cl)ccc2OCCn2c(C)nc3c(c2=O)CC(N2CC4COCC4C2)CC3)c2scc(C(=O)NS(C)(=O)=O)c2n1` (single isomer, unassigned) [Compound 359], the IC50 is less than 100 nM in assay [1]; less than 1000 nM in assay [2] (setting [4]); less than 5000 nM in assay [3] (Homo sapiens, COLO 205, 72 h).

Turning to `CNC1CCc2nc(C)n(CCOc3ccc(Cl)cc3-c3cccc(C(=O)O)c3)c(=O)c2C1` (stereo not drawn) [Compound 2], the IC50 in assay [1] was less than 100 nM; in assay [2] (setting [6]), more than 5000 nM; in assay [3] (Homo sapiens), less than 5000 nM.

With `Cc1cc(-c2cc(Cl)ccc2OCCn2c(C)nc3c(c2=O)CC(N2CCCC2)CC3)c2scc(C(=O)O)c2n1` (stereo not drawn) [Compound 4], the IC50 in assay [1] was less than 100 nM; in assay [2] (setting [6]), less than 1000 nM; in assay [3] (Homo sapiens) it was 5000 to 20000 nM.

On to `COC1CCc2nc(C)n(CCOc3ccc(Cl)cc3-c3cc(C)nc4c(C(=O)O)csc34)c(=O)c2C1` (stereo not drawn) [Compound 7], for which the IC50 lay in the range of 100 to 500 nM in assay [1], 1000 to 5000 nM in assay [2] (setting [6]) and 5000 to 20000 nM in assay [3] (Homo sapiens).

As to `Cc1cc(-c2cc(Cl)ccc2OCCn2c(C)nc3c(c2=O)CC(N2CCC2)CC3)c2scc(C(=O)O)c2n1` (stereo not drawn) [Compound 8], the IC50 was less than 100 nM in assay [1], less than 1000 nM in assay [2] (setting [6]) and 5000 to 20000 nM in assay [3] (Homo sapiens).

Regarding `Cc1cc(-c2cc(Cl)ccc2OCCn2c(C)nc3c(c2=O)CC(N2CCOCC2)CC3)c2scc(C(=O)O)c2n1` (stereo not drawn) [Compound 9], the IC50 in assay [1] was less than 100 nM; in assay [2] (setting [6]), less than 1000 nM; in assay [3] (Homo sapiens) it was less than 5000 nM.

Regarding `Cc1cc(-c2cc(Cl)ccc2OCCn2c(C)nc3c(c2=O)CC(N2CCN(C)CC2)CC3)c2scc(C(=O)O)c2n1` (stereo not drawn) [Compound 10], the IC50 in assay [1] was less than 100 nM; in assay [2] (setting [6]), 1000 to 5000 nM; in assay [3] (Homo sapiens), 5000 to 20000 nM.

Turning to `COC1CCN(C2CCc3nc(C)n(CCOc4ccc(Cl)cc4-c4cc(C)nc5c(C(=O)O)csc45)c(=O)c3C2)CC1` (stereo not drawn) [Compound 12], the IC50 in assay [1] is less than 100 nM; in assay [2] (setting [4]), less than 1000 nM; in assay [3] (Homo sapiens, COLO 205, 72 h), less than 5000 nM.

Take `CC(=O)N(C)C1CCc2nc(C)n(CCOc3ccc(Cl)cc3-c3cccc(C(=O)O)c3)c(=O)c2C1` (stereo not drawn) [Compound 15]: the IC50 was 500 to 5000 nM in assay [1]; more than 5000 nM in assay [2] (setting [4]); more than 20000 nM in assay [3] (Homo sapiens, COLO 205, 72 h).
